Measured values published in the supplement of paper PMC10307832.

Columns and labels:
Experiment in all cases: relative viability (nuclei count vs DMSO), 5 days (fraction); higher = more cells survive
Tosedostat = compound: CC(C)C[C@@H](C(=O)N[C@H](C(=O)OC1CCCC1)c1ccccc1)[C@H](O)C(=O)NO [Tosedostat]
Procedure, shortened: (§1)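 Lung cancer cell lines in 1536-well plates were exposed by pinning to five library-drug doses (not always all listed) √10 apart, following an overnight hold at 37 °C. MetaXpress counted Hoechst-stained nuclei from 4× images taken after 5 days without medium change. Viability is the median ratio of treated-well to vehicle-well nuclei across plates. Plates required control CV below 25% and at least one doubling.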

[1] = compound: CC1=NN=C(O1)C2=NN=C(C=C2)N3CCC(CC3)OC4=C(C=CC(=C4)F)Cl
Procedure, shortened: as §1

Tosedostat + Navitoclax = compound: CC(C)C[C@@H](C(=O)N[C@H](C(=O)OC1CCCC1)c1ccccc1)[C@H](O)C(=O)NO [Tosedostat] + CC1(C)CCC(c2ccc(Cl)cc2)=C(CN2CCN(c3ccc(C(=O)NS(=O)(=O)c4ccc(N[C@H](CCN5CCOCC5)CSc5ccccc5)c(S(=O)(=O)C(F)(F)F)c4)cc3)CC2)C1 [Navitoclax] (partner 0.5 µM)
Procedure, shortened: (§2)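 Lung cancer cell lines in 1536-well plates got either a single drug or a fixed anchor-drug dose together with five library-drug doses (not always all listed) in √10 steps, by pin tool, on the day after seeding. Nuclei were counted after 5 days, and relative viability is the treated-to-vehicle ratio of nuclei counts. Values are medians of duplicate plates.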

Tosedostat + Foretinib = compound: CC(C)C[C@@H](C(=O)N[C@H](C(=O)OC1CCCC1)c1ccccc1)[C@H](O)C(=O)NO [Tosedostat] + COc1cc2c(Oc3ccc(NC(=O)C4(C(=O)Nc5ccc(F)cc5)CC4)cc3F)ccnc2cc1OCCCN1CCOCC1 [Foretinib] (partner 0.25 µM)
Procedure, shortened: as §2

Row | Cell Line | relative viability (Tosedostat; 0.02 µM) | relative viability (Tosedostat; 0.06325 µM) | relative viability (Tosedostat; 0.2 µM) | relative viability (Tosedostat; 0.6325 µM) | relative viability (Tosedostat; 2 µM) | relative viability ([1]; 0.253 µM) | relative viability ([1]; 0.8 µM) | relative viability ([1]; 2.53 µM) | relative viability ([1]; 8 µM) | relative viability (Tosedostat + Navitoclax; first compound 0.02 µM) | relative viability (Tosedostat + Navitoclax; first compound 0.06325 µM) | relative viability (Tosedostat + Navitoclax; first compound 0.2 µM) | relative viability (Tosedostat + Navitoclax; first compound 0.6325 µM) | relative viability (Tosedostat + Navitoclax; first compound 2 µM) | relative viability (Tosedostat + Foretinib; first compound 0.02 µM) | relative viability (Tosedostat + Foretinib; first compound 0.06325 µM) | relative viability (Tosedostat + Foretinib; first compound 0.2 µM) | relative viability (Tosedostat + Foretinib; first compound 0.6325 µM) | relative viability (Tosedostat + Foretinib; first compound 2 µM)
1 | NCI-H1755 | 1 | 0.999 | 1.05 | 1 | 0.971 | 0.661 | 0.746 | 0.759 | 0.731 | 1.05 | 1.05 | 1.01 | 0.931 | 0.958 | 1.01 | 0.944 | 1 | 0.992 | 0.931
2 | LC-2-ad | 1.13 | 1.02 | 0.963 | 0.871 | 0.818 | 0.407 | 0.431 | 0.44 | 0.409 | 0.614 | 0.419 | 0.473 | 0.386 | 0.264 | 0.987 | 0.939 | 0.941 | 0.842 | 0.806
3 | NCI-H1975 | 0.973 | 1 | 0.884 | 0.788 | 0.733 |  | 0.676 | 0.918 | 0.849 | 1.06 | 1.14 | 1 | 1.01 | 0.869 | 0.986 | 0.985 | 1.12 | 0.71 | 0.699
4 | ChaGo-K-1 | 1.07 | 0.975 | 0.969 | 1.02 | 0.771 | 0.736 | 0.681 | 0.687 | 0.671 | 1.23 | 1.1 | 0.905 | 1.01 | 0.761 | 0.911 | 0.934 | 0.976 | 0.833 | 0.709
5 | COR-L 105 | 1.03 | 0.906 | 0.81 | 0.784 | 0.697 | 0.902 | 0.956 | 0.989 | 1.07 | 0.673 | 0.624 | 0.707 | 0.722 | 0.512 | 1.3 | 0.8 | 1.06 | 0.753 | 0.69
6 | NCI-H2085 | 0.918 | 1.02 | 0.983 | 1.02 | 0.99 | 0.901 | 0.736 | 0.908 | 0.795 | 1.04 | 1.06 | 1.09 | 1.05 | 1.08 | 0.919 | 0.971 | 0.915 | 0.965 | 0.875
7 | Calu-6 | 1.08 | 0.925 | 0.928 | 0.831 | 0.733 | 0.673 | 0.682 | 0.694 | 0.61 | 0.919 | 0.787 | 0.655 | 0.668 | 0.461 | 1.04 | 0.858 | 0.826 | 0.638 | 0.559
8 | NCI-H2087 | 1.21 | 1.06 | 1.11 | 0.819 | 0.942 | 0.771 | 0.569 | 0.659 | 0.621 | 0.995 | 0.916 | 1 | 0.931 | 0.805 | 1.3 | 1.13 | 1.06 | 0.98 | 0.941
9 | NCI-H1650 | 0.895 | 0.85 | 0.94 | 0.911 | 0.98 |  | 0.756 | 0.749 | 0.722 | 1.25 | 1.05 | 1.27 | 1.01 | 0.825 | 1.05 | 0.955 | 1.03 | 0.985 | 0.967
10 | NCI-H322M | 0.898 | 0.964 | 0.877 | 0.762 | 0.834 | 0.929 | 0.881 | 1.02 | 0.819 | 1.17 | 1.11 | 1.19 | 1.14 | 1.02 | 0.995 | 0.899 | 0.93 | 0.904 | 0.857
11 | HCC-366 | 1.02 | 1.01 | 1.03 | 0.979 | 1.01 | 0.484 | 0.469 | 0.508 | 0.482 | 1.15 | 1.01 | 1.02 | 1.01 | 1.11 | 0.913 | 0.948 | 0.972 | 0.927 | 0.935
12 | EMC-BAC-2 | 1.09 | 1.16 | 0.952 | 0.919 | 0.811 | 0.98 | 0.872 | 0.891 | 0.615 | 1.11 | 1.2 | 1.15 | 1.14 | 1.19 | 0.954 | 1.02 | 0.999 | 1.1 | 0.838
13 | NCI-H460 | 1.02 | 0.994 | 0.99 | 0.974 | 0.989 | 0.273 | 0.306 | 0.282 | 0.284 | 1.38 | 1.18 | 1.09 | 0.891 | 1.23 | 1.05 | 1 | 0.968 | 0.977 | 1
14 | NCI-H1944 | 1.01 | 0.921 | 0.928 | 0.889 | 0.853 | 0.429 | 0.487 | 0.515 | 0.466 | 1.1 | 0.975 | 1.08 | 1.02 | 1.01 | 0.984 | 0.787 | 0.864 | 0.822 | 0.773
15 | EPLC-272H | 1.06 | 0.984 | 0.763 | 0.593 | 0.428 | 0.987 | 0.716 | 0.887 | 0.828 | 1.19 | 1.3 | 0.826 | 0.775 | 0.576 | 0.658 | 0.512 | 0.58 | 0.355 | 0.185
16 | EBC-1 | 0.994 | 0.934 | 0.946 | 0.785 | 0.683 | 0.663 | 0.735 | 0.81 | 0.606 | 0.42 | 0.473 | 0.423 | 0.356 | 0.305 | 0.112 | 0.0828 | 0.0952 | 0.115 | 0.117
